Reference: the supplement of paper PMC10307832

Assays:
Test in all cases: relative viability (nuclei count vs DMSO), 5 days (fraction); higher = more cells survive
Alisertib = compound: COc1cc(Nc2ncc3c(n2)-c2ccc(Cl)cc2C(c2c(F)cccc2OC)=NC3)ccc1C(=O)O [Alisertib]
How it was run: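 Lung cancer cell lines in 1536-well plates were kept overnight at 37 °C, then pinned with five library-drug doses (not always all listed) spaced by √10 on vehicle-anchored plates. After 5 days without medium change, cells were fixed, permeabilised and Hoechst-stained in one step, imaged at 4×, and nuclei were counted with MetaXpress. Viability is treated-well nuclei divided by vehicle-well nuclei, taken as the median over plates. Plates passed only with control CV below 25% and at least one doubling.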

Alisertib + Vorinostat = compound: COc1cc(Nc2ncc3c(n2)-c2ccc(Cl)cc2C(c2c(F)cccc2OC)=NC3)ccc1C(=O)O [Alisertib] + O=C(CCCCCCC(=O)Nc1ccccc1)NO [Vorinostat] (partner 1 µM)
How it was run: (§1)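 For relative viability, nuclei counts in treated wells were divided by those in vehicle wells. Lung cancer cell lines had been pin-tool dosed in 1536-well plates the day after seeding and cultured for 5 days, then fixed and stained in one step (final 0.05% Triton X-100, 1% formaldehyde, 1 ug/ml Hoechst) and imaged at 4×. Doses were one drug alone or a fixed anchor-drug dose plus five library-drug doses (not always all listed) in √10 steps, and values are duplicate-plate medians.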

Alisertib + Palbociclib = compound: COc1cc(Nc2ncc3c(n2)-c2ccc(Cl)cc2C(c2c(F)cccc2OC)=NC3)ccc1C(=O)O [Alisertib] + CC(=O)c1c(C)c2cnc(Nc3ccc(N4CCNCC4)cn3)nc2n(C2CCCC2)c1=O [Palbociclib] (partner 0.5 µM)
How it was run: as §1

Alisertib + Trametinib = compound: COc1cc(Nc2ncc3c(n2)-c2ccc(Cl)cc2C(c2c(F)cccc2OC)=NC3)ccc1C(=O)O [Alisertib] + CC(=O)Nc1cccc(-n2c(=O)n(C3CC3)c(=O)c3c(Nc4ccc(I)cc4F)n(C)c(=O)c(C)c32)c1 [Trametinib] (partner 0.02 µM)
How it was run: as §1

Alisertib + Tozasertib = compound: COc1cc(Nc2ncc3c(n2)-c2ccc(Cl)cc2C(c2c(F)cccc2OC)=NC3)ccc1C(=O)O [Alisertib] + Cc1cc(Nc2cc(N3CCN(C)CC3)nc(Sc3ccc(NC(=O)C4CC4)cc3)n2)n[nH]1 [Tozasertib] (partner 0.1 µM)
How it was run: as §1

Alisertib + AZD7762 = compound: COc1cc(Nc2ncc3c(n2)-c2ccc(Cl)cc2C(c2c(F)cccc2OC)=NC3)ccc1C(=O)O [Alisertib] + NC(=O)Nc1cc(-c2cccc(F)c2)sc1C(=O)N[C@H]1CCCNC1 [AZD7762] (partner 0.2 µM)
How it was run: as §1

Alisertib + Luminespib = compound: COc1cc(Nc2ncc3c(n2)-c2ccc(Cl)cc2C(c2c(F)cccc2OC)=NC3)ccc1C(=O)O [Alisertib] + CCNC(=O)c1noc(-c2cc(C(C)C)c(O)cc2O)c1-c1ccc(CN2CCOCC2)cc1 [Luminespib] (partner 0.01 µM)
How it was run: as §1

Alisertib + OSI-027 = compound: COc1cc(Nc2ncc3c(n2)-c2ccc(Cl)cc2C(c2c(F)cccc2OC)=NC3)ccc1C(=O)O [Alisertib] + COc1cccc2cc(-c3nc([C@H]4CC[C@H](C(=O)O)CC4)n4ncnc(N)c34)[nH]c12 [OSI-027] (partner 0.5 µM)
How it was run: as §1

Alisertib + Olaparib = compound: COc1cc(Nc2ncc3c(n2)-c2ccc(Cl)cc2C(c2c(F)cccc2OC)=NC3)ccc1C(=O)O [Alisertib] + O=C(c1cc(Cc2n[nH]c(=O)c3ccccc23)ccc1F)N1CCN(C(=O)C2CC2)CC1 [Olaparib] (partner 8 µM)
How it was run: as §1

Alisertib + Pemetrexed = compound: COc1cc(Nc2ncc3c(n2)-c2ccc(Cl)cc2C(c2c(F)cccc2OC)=NC3)ccc1C(=O)O [Alisertib] + Nc1nc2[nH]cc(CCc3ccc(C(=O)N[C@@H](CCC(=O)O)C(=O)O)cc3)c2c(=O)[nH]1 [Pemetrexed] (partner 0.2 µM)
How it was run: as §1

Alisertib + Foretinib = compound: COc1cc(Nc2ncc3c(n2)-c2ccc(Cl)cc2C(c2c(F)cccc2OC)=NC3)ccc1C(=O)O [Alisertib] + COc1cc2c(Oc3ccc(NC(=O)C4(C(=O)Nc5ccc(F)cc5)CC4)cc3F)ccnc2cc1OCCCN1CCOCC1 [Foretinib] (partner 0.25 µM)
How it was run: as §1

Alisertib + Phenformin = compound: COc1cc(Nc2ncc3c(n2)-c2ccc(Cl)cc2C(c2c(F)cccc2OC)=NC3)ccc1C(=O)O [Alisertib] + N=C(N)NC(=N)NCCc1ccccc1 [Phenformin] (partner 250 µM)
How it was run: as §1

Alisertib + Decitabine = compound: COc1cc(Nc2ncc3c(n2)-c2ccc(Cl)cc2C(c2c(F)cccc2OC)=NC3)ccc1C(=O)O [Alisertib] + Nc1ncn([C@H]2C[C@H](O)[C@@H](CO)O2)c(=O)n1 [Decitabine] (partner 2 µM)
How it was run: as §1

Alisertib + Dasatinib = compound: COc1cc(Nc2ncc3c(n2)-c2ccc(Cl)cc2C(c2c(F)cccc2OC)=NC3)ccc1C(=O)O [Alisertib] + Cc1nc(Nc2ncc(C(=O)Nc3c(C)cccc3Cl)s2)cc(N2CCN(CCO)CC2)n1 [Dasatinib] (partner 0.075 µM)
How it was run: as §1

Cell Line: NCI-H2342
- relative viability (Alisertib; 0.005 µM): 0.812
- relative viability (Alisertib; 0.01581 µM): 0.978
- relative viability (Alisertib; 0.05 µM): 0.776
- relative viability (Alisertib; 0.1581 µM): 0.551
- relative viability (Alisertib; 0.5 µM): 0.42
- relative viability (Alisertib + Vorinostat; first compound 0.005 µM): 0.65
- relative viability (Alisertib + Vorinostat; first compound 0.01581 µM): 0.662
- relative viability (Alisertib + Vorinostat; first compound 0.05 µM): 0.61
- relative viability (Alisertib + Vorinostat; first compound 0.1581 µM): 0.464
- relative viability (Alisertib + Vorinostat; first compound 0.5 µM): 0.397
- relative viability (Alisertib + Palbociclib; first compound 0.005 µM): 0.539
- relative viability (Alisertib + Palbociclib; first compound 0.01581 µM): 0.533
- relative viability (Alisertib + Palbociclib; first compound 0.05 µM): 0.509
- relative viability (Alisertib + Palbociclib; first compound 0.1581 µM): 0.348
- relative viability (Alisertib + Palbociclib; first compound 0.5 µM): 0.415
- relative viability (Alisertib + Trametinib; first compound 0.005 µM): 0.758
- relative viability (Alisertib + Trametinib; first compound 0.01581 µM): 0.809
- relative viability (Alisertib + Trametinib; first compound 0.05 µM): 0.483
- relative viability (Alisertib + Trametinib; first compound 0.1581 µM): 0.481
- relative viability (Alisertib + Trametinib; first compound 0.5 µM): 0.443
- relative viability (Alisertib + Tozasertib; first compound 0.005 µM): 0.623
- relative viability (Alisertib + Tozasertib; first compound 0.01581 µM): 0.424
- relative viability (Alisertib + Tozasertib; first compound 0.05 µM): 0.335
- relative viability (Alisertib + Tozasertib; first compound 0.1581 µM): 0.377
- relative viability (Alisertib + Tozasertib; first compound 0.5 µM): 0.351
- relative viability (Alisertib + AZD7762; first compound 0.005 µM): 0.565
- relative viability (Alisertib + AZD7762; first compound 0.01581 µM): 0.43
- relative viability (Alisertib + AZD7762; first compound 0.05 µM): 0.347
- relative viability (Alisertib + AZD7762; first compound 0.1581 µM): 0.352
- relative viability (Alisertib + AZD7762; first compound 0.5 µM): 0.414
- relative viability (Alisertib + Luminespib; first compound 0.005 µM): 0.646
- relative viability (Alisertib + Luminespib; first compound 0.01581 µM): 0.662
- relative viability (Alisertib + Luminespib; first compound 0.05 µM): 0.555
- relative viability (Alisertib + Luminespib; first compound 0.1581 µM): 0.447
- relative viability (Alisertib + Luminespib; first compound 0.5 µM): 0.368
- relative viability (Alisertib + OSI-027; first compound 0.005 µM): 0.529
- relative viability (Alisertib + OSI-027; first compound 0.01581 µM): 0.643
- relative viability (Alisertib + OSI-027; first compound 0.05 µM): 0.589
- relative viability (Alisertib + OSI-027; first compound 0.1581 µM): 0.468
- relative viability (Alisertib + OSI-027; first compound 0.5 µM): 0.383
- relative viability (Alisertib + Olaparib; first compound 0.005 µM): 0.463
- relative viability (Alisertib + Olaparib; first compound 0.01581 µM): 0.475
- relative viability (Alisertib + Olaparib; first compound 0.05 µM): 0.298
- relative viability (Alisertib + Olaparib; first compound 0.1581 µM): 0.33
- relative viability (Alisertib + Olaparib; first compound 0.5 µM): 0.349
- relative viability (Alisertib + Pemetrexed; first compound 0.005 µM): 0.774
- relative viability (Alisertib + Pemetrexed; first compound 0.01581 µM): 0.75
- relative viability (Alisertib + Pemetrexed; first compound 0.05 µM): 0.57
- relative viability (Alisertib + Pemetrexed; first compound 0.1581 µM): 0.542
- relative viability (Alisertib + Pemetrexed; first compound 0.5 µM): 0.418
- relative viability (Alisertib + Foretinib; first compound 0.005 µM): 1.04
- relative viability (Alisertib + Foretinib; first compound 0.01581 µM): 1.09
- relative viability (Alisertib + Foretinib; first compound 0.05 µM): 0.652
- relative viability (Alisertib + Foretinib; first compound 0.1581 µM): 0.464
- relative viability (Alisertib + Foretinib; first compound 0.5 µM): 0.363
- relative viability (Alisertib + Phenformin; first compound 0.005 µM): 0.552
- relative viability (Alisertib + Phenformin; first compound 0.01581 µM): 0.551
- relative viability (Alisertib + Phenformin; first compound 0.05 µM): 0.581
- relative viability (Alisertib + Phenformin; first compound 0.1581 µM): 0.41
- relative viability (Alisertib + Phenformin; first compound 0.5 µM): 0.362
- relative viability (Alisertib + Decitabine; first compound 0.005 µM): 0.673
- relative viability (Alisertib + Decitabine; first compound 0.01581 µM): 0.639
- relative viability (Alisertib + Decitabine; first compound 0.05 µM): 0.452
- relative viability (Alisertib + Decitabine; first compound 0.1581 µM): 0.441
- relative viability (Alisertib + Decitabine; first compound 0.5 µM): 0.431
- relative viability (Alisertib + Dasatinib; first compound 0.005 µM): 0.291
- relative viability (Alisertib + Dasatinib; first compound 0.01581 µM): 0.348
- relative viability (Alisertib + Dasatinib; first compound 0.05 µM): 0.266
- relative viability (Alisertib + Dasatinib; first compound 0.1581 µM): 0.268
- relative viability (Alisertib + Dasatinib; first compound 0.5 µM): 0.276

Cell Line: NCI-H1623
- relative viability (Alisertib; 0.005 µM): 0.841
- relative viability (Alisertib; 0.01581 µM): 0.856
- relative viability (Alisertib; 0.05 µM): 0.656
- relative viability (Alisertib; 0.1581 µM): 0.4
- relative viability (Alisertib; 0.5 µM): 0.395
- relative viability (Alisertib + Tozasertib; first compound 0.005 µM): 0.37
- relative viability (Alisertib + Tozasertib; first compound 0.01581 µM): 0.398
- relative viability (Alisertib + Tozasertib; first compound 0.05 µM): 0.424
- relative viability (Alisertib + Tozasertib; first compound 0.1581 µM): 0.386
- relative viability (Alisertib + Tozasertib; first compound 0.5 µM): 0.425
- relative viability (Alisertib + Luminespib; first compound 0.005 µM): 0.499
- relative viability (Alisertib + Luminespib; first compound 0.01581 µM): 0.496
- relative viability (Alisertib + Luminespib; first compound 0.05 µM): 0.385
- relative viability (Alisertib + Luminespib; first compound 0.1581 µM): 0.33
- relative viability (Alisertib + Luminespib; first compound 0.5 µM): 0.379
- relative viability (Alisertib + OSI-027; first compound 0.005 µM): 0.439
- relative viability (Alisertib + OSI-027; first compound 0.01581 µM): 0.439
- relative viability (Alisertib + OSI-027; first compound 0.05 µM): 0.398
- relative viability (Alisertib + OSI-027; first compound 0.1581 µM): 0.295
- relative viability (Alisertib + OSI-027; first compound 0.5 µM): 0.309
- relative viability (Alisertib + Foretinib; first compound 0.005 µM): 0.884
- relative viability (Alisertib + Foretinib; first compound 0.01581 µM): 0.848
- relative viability (Alisertib + Foretinib; first compound 0.05 µM): 0.569
- relative viability (Alisertib + Foretinib; first compound 0.1581 µM): 0.425
- relative viability (Alisertib + Foretinib; first compound 0.5 µM): 0.424
- relative viability (Alisertib + Phenformin; first compound 0.005 µM): 0.619
- relative viability (Alisertib + Phenformin; first compound 0.01581 µM): 0.592
- relative viability (Alisertib + Phenformin; first compound 0.05 µM): 0.501
- relative viability (Alisertib + Phenformin; first compound 0.1581 µM): 0.382
- relative viability (Alisertib + Phenformin; first compound 0.5 µM): 0.337
- relative viability (Alisertib + Dasatinib; first compound 0.005 µM): 0.587
- relative viability (Alisertib + Dasatinib; first compound 0.01581 µM): 0.647
- relative viability (Alisertib + Dasatinib; first compound 0.05 µM): 0.573
- relative viability (Alisertib + Dasatinib; first compound 0.1581 µM): 0.344
- relative viability (Alisertib + Dasatinib; first compound 0.5 µM): 0.337
